Measured values as given in ChEMBL document CHEMBL5038655, “Development of Novel Dihydrofuro[3,4-d]pyrimidine Derivatives as HIV-1 NNRTIs to Overcome the Highly Resistant Mutant Strains F227L/V106A and K103N/Y181C” (J Med Chem, 2022).
Converted amounts (≈) assume the structure as drawn.

Tests used:
[1] = Selectivity index, ratio of CC50 for human MT4 cells to EC50 for antiviral activity against HIV-1 IIIB; type: toxicity; details: read-out: Ratio CC50/EC50
[2] = system: Human immunodeficiency virus 1; test: Antiviral activity against HIV-1 IIIB; type: functional, organism-based; details: Human immunodeficiency virus 1, IIIB
[3] = Cytotoxicity against human MT4 cells; type: toxicity, cell-based
[4] = system: Human immunodeficiency virus 1; test: Antiviral activity against HIV-1 IIIB harboring K103N/Y181C double mutant; type: functional, organism-based; details: Human immunodeficiency virus 1, IIIB
[5] = Selectivity index, ratio of CC50 for human MT4 cells to EC50 for antiviral activity against HIV-1 IIIB harboring K103N/Y181C double mutant; type: toxicity; details: read-out: Ratio CC50/EC50
[6] = AUC(0 to t) in Sprague-Dawley rat at 2 mg/kg, iv measured upto 10 hrs by LC-MS/MS analysis; type: ADME, organism-based; set-up: route intravenous, dose 2 mg/kg, time <=10; details: in vivo
[7] = system: Human immunodeficiency virus 1; test: Antiviral activity against HIV1 L1001 infected in human MT4 cells assessed as protection against virus-induced cytopathic effect incubated for 5 days by MTT assay; type: functional, organism-based; details: Human immunodeficiency virus 1, L1001, MT4, 120 h
[8] = Aqueous solubility of the compound at pH 7.0 by HPLC analysis; type: physicochemical; details: buffer
[9] = Terminal half life in Sprague-Dawley rat at 2 mg/kg, iv measured upto 10 hrs by LC-MS/MS analysis; type: ADME, organism-based; details: in vivo, read-out: beta t1/2 (converted)
[10] = system: Human immunodeficiency virus 1; test: Antiviral activity against HIV-1 harboring reverse transcriptase K103N mutant infected in human MT4 cells assessed as protection against virus-induced cytopathic effect incubated for 5 days by MTT assay; details: Human immunodeficiency virus 1, MT4, 120 h
[11] = Terminal half life in Sprague-Dawley rat at 10 mg/kg, po measured upto 12 hrs by LC-MS/MS analysis; type: ADME, organism-based; details: in vivo, read-out: beta t1/2 (converted)
[12] = Cmax in Sprague-Dawley rat at 2 mg/kg, iv measured upto 10 hrs by LC-MS/MS analysis; type: ADME, organism-based; set-up: route intravenous, dose 2 mg/kg, time <=10; details: in vivo
[13] = system: Human immunodeficiency virus 1; test: Antiviral activity against HIV-1 IIIB infected in human MT4 cells assessed as protection against virus-induced cytotoxicity incubated for 5 days by MTT assay; type: functional, organism-based; details: Human immunodeficiency virus 1, IIIB, MT4, 120 h
[14] = AUC(0 to infinity) in Sprague-Dawley rat at 10 mg/kg, po measured upto 12 hrs by LC-MS/MS analysis; type: ADME, organism-based; set-up: route oral, dose 10 mg/kg, time <=12; details: in vivo
[15] = system: Human immunodeficiency virus 1; test: Antiviral activity against HIV-1 harboring reverse transcriptase E138K mutant infected in human MT4 cells assessed as protection against virus-induced cytopathic effect incubated for 5 days by MTT assay; details: Human immunodeficiency virus 1, MT4, 120 h
[16] = system: Human immunodeficiency virus 1; test: Antiviral activity against HIV-1 harboring reverse transcriptase Y188L mutant infected in human MT4 cells assessed as protection against virus-induced cytopathic effect incubated for 5 days by MTT assay; details: Human immunodeficiency virus 1, MT4, 120 h
[17] = system: Human immunodeficiency virus 1; test: Potency index, ratio of rilpivirine EC50 to test compound EC50 for antiviral activity against HIV-1 harboring reverse transcriptase F227L/V106A mutant infected in human MT4 cells assessed as protection against virus-induced cytopathic effect incubated for 5 days by MTT assay; type: functional; details: time 5 day
[18] = AUC(0 to infinity) in Sprague-Dawley rat at 2 mg/kg, iv measured upto 10 hrs by LC-MS/MS analysis; type: ADME, organism-based; set-up: route intravenous, dose 2 mg/kg, time <=10; details: in vivo
[19] = system: Human immunodeficiency virus 1; test: Antiviral activity against HIV-1 harboring reverse transcriptase Y181C mutant infected in human MT4 cells assessed as protection against virus-induced cytopathic effect incubated for 5 days by MTT assay; details: Human immunodeficiency virus 1, MT4, 120 h
[20] = system: Human immunodeficiency virus 1; test: Antiviral activity against HIV-1 IIIB harboring K103N/Y181C double mutant infected in human MT4 cells assessed as protection against virus-induced cytotoxicity incubated for 5 days by MTT assay; type: functional, organism-based; details: Human immunodeficiency virus 1, IIIB, MT4, 120 h
[21] = Selectivity index, ratio of CC50 for human MT4 cells to EC50 for antiviral activity against HIV-1 IIIB infected in human MT4 cells; type: toxicity, cell-based; details: MT4 cells (uninfected and infected with HIV-1 IIIB), read-out: Ratio CC50/EC50
[22] = Aqueous solubility of the compound at pH 2.0 by HPLC analysis; type: physicochemical; details: buffer
[23] = target: Human immunodeficiency virus type 1 reverse transcriptase (Human immunodeficiency virus 1, UniProt Q72547); test: Inhibition of wild type HIV-1 reverse transcriptase using biotin-labelled dNTPs as substrate incubated for 2 hrs by ELISA
[24] = Oral bioavailability in Sprague-Dawley rat at 10 mg/kg measured upto 12 hrs by LC-MS/MS analysis; type: ADME, organism-based; details: in vivo
[25] = Tmax in Sprague-Dawley rat at 10 mg/kg, po measured upto 12 hrs by LC-MS/MS analysis; type: ADME, organism-based; details: in vivo
[26] = AUC(0 to t) in Sprague-Dawley rat at 10 mg/kg, po measured upto 12 hrs by LC-MS/MS analysis; type: ADME, organism-based; set-up: route oral, dose 10 mg/kg, time <=12; details: in vivo
[27] = Selectivity index, ratio of CC50 for human MT4 cells to EC50 for antiviral activity against HIV-1 IIIB harboring K103N/Y181C double mutant infected in human MT4 cells; type: toxicity, cell-based; details: read-out: Ratio CC50/EC50
[28] = Cmax in Sprague-Dawley rat at 10 mg/kg, po measured upto 12 hrs by LC-MS/MS analysis; type: ADME, organism-based; set-up: route oral, dose 10 mg/kg, time <=12; details: in vivo
[29] = Aqueous solubility of the compound at pH 7.4 by HPLC analysis; type: physicochemical; details: buffer
[30] = system: Human immunodeficiency virus 1; test: Antiviral activity against HIV-1 harboring reverse transcriptase F227L/V106A mutant infected in human MT4 cells assessed as protection against virus-induced cytopathic effect incubated for 5 days by MTT assay; details: Human immunodeficiency virus 1, MT4, 120 h
[31] = Cytotoxicity against human MT4 cells assessed as reduction in cell viability incubated for 5 days by MTT assay; type: toxicity, cell-based; details: time 5 day
[32] = Clearance in Sprague-Dawley rat at 2 mg/kg, iv measured upto 10 hrs by LC-MS/MS analysis; type: ADME, organism-based; details: in vivo
[33] = Acute toxicity in Kunming mouse assessed as change in body weight at 2000 mg/kg, po measured for 7 days; type: organism-based; details: in vivo, time 7 day
[34] = Tmax in Sprague-Dawley rat at 2 mg/kg, iv measured upto 10 hrs by LC-MS/MS analysis; type: ADME, organism-based; details: in vivo
[35] = system: Human immunodeficiency virus 1; test: Potency index, ratio of etravirine EC50 to test compound EC50 for antiviral activity against HIV-1 harboring reverse transcriptase F227L/V106A mutant infected in human MT4 cells assessed as protection against virus-induced cytopathic effect incubated for 5 days by MTT assay; type: functional; details: time 5 day
[36] = system: Human immunodeficiency virus 1; test: Potency index, ratio of rilpivirine EC50 to test compound EC50 for antiviral activity against HIV-1 harboring reverse transcriptase Y188L mutant infected in human MT4 cells assessed as protection against virus-induced cytopathic effect incubated for 5 days by MTT assay; type: functional; details: time 5 day

| Structure (SMILES) | AUC(0-t) at 10 h [6] [ng·h/mL] | EC50 [7] [nM] | solubility [8] [µg/mL] | half-life [9] [h] | EC50 [10] [nM] | half-life [11] [h] | Cmax [12] [ng/mL] | EC50 [13] [nM] | AUC(0-inf) [14] [ng·h/mL] | EC50 [15] [nM] | EC50 [16] [nM] | Ratio EC50 [17] | AUC(0-inf) [18] [ng·h/mL] | EC50 [19] [nM] | EC50 [20] [nM] | selectivity ratio [21] | solubility [22] [µg/mL] | IC50 [23] [nM] | bioavailability [24] [%] | Tmax [25] [h] | other results |
| --- | --- | --- | --- | --- | --- | --- | --- | --- | --- | --- | --- | --- | --- | --- | --- | --- | --- | --- | --- | --- | --- |
| Cn1c(Cn2ccc(C(F)(F)F)c(Oc3cc(Cl)cc(C#N)c3)c2=O)n[nH]c1=O [DORAVIRINE] |  |  |  |  |  |  |  |  |  |  |  |  |  |  |  |  |  |  |  |  | selectivity ratio [1]: > 21800; EC50 [2]: 13.3 nM; CC50 [3]: > 293000 nM; EC50 [4]: 14.5 nM; selectivity ratio [5]: > 20100 |
| Cc1cc(/C=C/C#N)cc(C)c1Oc1nc(NC2CCN(c3ccc(NS(C)(=O)=O)cc3)CC2)nc2c1COC2 | 903 | 12.4 | 10.1 (≈ 18 µM) | 1.11 | 6.91 | 1.47 | 756 | 6.17 | 753 | 7.66 | 28.3 | 14 | 908 | 8.91 | 27.9 | 6290 | 124 (≈ 221 µM) | 150 | 16.6 | 1 | AUC(0-t) at 12 h [26]: 727 ng·h/mL; selectivity ratio [27]: 1390; Cmax [28]: 307 ng/mL; solubility [29]: 2.1 µg/mL (≈ 3.75 µM); EC50 [30]: 5.79 nM; CC50 at 120 h [31]: 38800 nM; clearance [32]: 36.7 mL/min/kg; Activity [33]: Non-Toxic; Tmax [34]: 1.98 min; Ratio EC50 [35]: 3.6 |
| Cc1cc(/C=C/C#N)cc(C)c1Oc1nc(NC2CCN(Cc3ccc(C(N)=O)cc3)CC2)nc2c1COC2 | 409 | 3.9 | 25.4 (≈ 48.4 µM) | 0.88 | 2.14 | 1.05 | 480 | 2.85 | 809 | 6.76 | 18 | 8.4 | 503 | 6.09 | 11.7 | 8450 | 187 (≈ 356 µM) | 140 | 32.1 | 2.12 | Ratio EC50 [36]: 4.4; AUC(0-t) at 12 h [26]: 801 ng·h/mL; selectivity ratio [27]: 2060; Cmax [28]: 250 ng/mL; solubility [29]: 5.24 µg/mL (≈ 9.99 µM); EC50 [30]: 9.67 nM; CC50 at 120 h [31]: 24100 nM; clearance [32]: 66.3 mL/min/kg; Activity [33]: Non-Toxic; Tmax [34]: 1.98 min |
